Active and inactive are the calls of the source. The calls are words filed in the database; no cut-off is given here.
Columns and labels:
SARS-CoV-2 [1] = experiment: (§1) Antiviral activity against SARS CoV-2 Wuhan infected in African green monkey Vero E6 cells assessed as inhibition of viral replication pretreated for 15 mins followed by compound removal and induction of viral infection for 1 hr and subsequent removal of inoculum and further addition of media containing compound measured after 24 hrs by cell-based ELISA; type: functional, organism-based; details: for IC50: Severe acute respiratory syndrome coronavirus 2, Wuhan, Vero C1008; for inhibition: Severe acute respiratory syndrome coronavirus 2, time 24.25 hrs
Vero C1008 [2] = experiment: (§2) Cytotoxicity against African green monkey Vero E6 cells assessed as cell viability at 5 uM incubated for 48 hrs by MTT assay; type: toxicity, cell-based; details: chlorocebus sabaeus, vero c1008, 48 h, 5 µM
SARS-CoV-2 [3] = experiment: Potency index, ratio of Arbidol IC50 to test compound IC50 for antiviral activity against SARS CoV-2 Wuhan infected in African green monkey Vero E6 cells assessed as inhibition of viral replication pretreated for 15 mins followed by compound removal and induction of viral infection for 1 hr and subsequent removal of inoculum and further addition of media containing compound measured after 24 hrs …; type: functional, Severe acute respiratory syndrome coronavirus 2; details: time 24.25 hrs
[4] = as §2; type: toxicity, cell-based, Vero C1008; details: chlorocebus sabaeus, Vero E6 cells, read-out: Activity
SARS-CoV-2 [5] = experiment: as §1, with “virus inactivation at 1 uM” for “inhibition of viral replication”, “48” for “24”, “RT-qPCR analysis relative to control” for “cell-based ELISA”; type: functional
SARS-CoV-2 [6] = experiment: as §1, with “virus inactivation at 5 uM” for “inhibition of viral replication”, “48” for “24”, “RT-qPCR analysis relative to control” for “cell-based ELISA”; type: functional, Severe acute respiratory syndrome coronavirus 2; details: time 48.25 hrs
[7] = target: T1, Voltage-gated inwardly rectifying potassium channel KCNH2 (Homo sapiens, UniProt Q12809); experiment: Inhibition of hERG extracted from membrane (unknown origin) incubated for 4 hrs by fluorescence polarization assay; type: toxicity, cell membranes
[8] = Lipophilicity, LogD of compound in sodium phosphate buffer/n-octanol incubated for 3 hrs by LC-UV analysis; type: physicochemical
[9] = Stability in human plasma assessed as half life at 2 uM measured up to 120 mins by LC-MS/MS analysis; type: ADME, cell-free
[10] = Stability in mouse plasma assessed as half life at 2 uM measured up to 120 mins by LC-MS/MS analysis; type: ADME, cell-free
[11] = Stability in human plasma assessed as compound remaining at 2 uM measured after 60 mins by LC-MS/MS analysis; type: ADME, cell-free; details: read-out: Stability
[12] = Stability in mouse plasma assessed as compound remaining at 2 uM measured after 60 mins by LC-MS/MS analysis; type: ADME, cell-free; details: read-out: Stability
[13] = Microsomal stability in human liver microsomes assessed as half life at 100 uM preincubated for 15 mins followed by NADPH addition measured up to 60 mins by LC-MS/MS analysis; type: ADME, Microsome; details: time < 75 min
[14] = Microsomal stability in mouse liver microsomes assessed as half life at 100 uM preincubated for 15 mins followed by NADPH addition measured up to 60 mins by LC-MS/MS analysis; type: ADME, Microsome; details: time < 75 min
[15] = Microsomal stability in human liver microsomes assessed as compound remaining at 100 uM preincubated for 15 mins followed by NADPH addition measured after 60 mins by LC-MS/MS analysis; type: ADME, Microsome; details: time 75 min, read-out: Stability
[16] = Microsomal stability in mouse liver microsomes assessed as compound remaining at 100 uM preincubated for 15 mins followed by NADPH addition measured after 60 mins by LC-MS/MS analysis; type: ADME, Microsome; details: time 75 min, read-out: Stability
[17] = Microsomal stability in human liver microsomes assessed as intrinsic clearance measured per mg protein at 100 uM preincubated for 15 mins followed by NADPH addition measured up to 60 mins by LC-MS/MS analysis; type: ADME, Microsome; details: time < 75 min, read-out: CLH
[18] = Microsomal stability in mouse liver microsomes assessed as intrinsic clearance measured per mg protein at 100 uM preincubated for 15 mins followed by NADPH addition measured up to 60 mins by LC-MS/MS analysis; type: ADME, Microsome; details: time < 75 min, read-out: CLH
[19] = target: T1, Voltage-gated inwardly rectifying potassium channel KCNH2; experiment: Inhibition of hERG; type: toxicity
Vero C1008 [20] = experiment: Cytotoxicity against African green monkey Vero E6 cells assessed as cell viability at 1 uM incubated for 48 hrs by MTT assay; type: toxicity, cell-based; details: chlorocebus sabaeus, vero c1008, 48 h
SARS-CoV-2 [21] = experiment: as §1, with “virus inactivation at 10 uM” for “inhibition of viral replication”, “48” for “24”, “RT-qPCR analysis relative to control” for “cell-based ELISA”; type: functional, Severe acute respiratory syndrome coronavirus 2; details: time 48.25 hrs

T1 sequence (Q12809 whole entry): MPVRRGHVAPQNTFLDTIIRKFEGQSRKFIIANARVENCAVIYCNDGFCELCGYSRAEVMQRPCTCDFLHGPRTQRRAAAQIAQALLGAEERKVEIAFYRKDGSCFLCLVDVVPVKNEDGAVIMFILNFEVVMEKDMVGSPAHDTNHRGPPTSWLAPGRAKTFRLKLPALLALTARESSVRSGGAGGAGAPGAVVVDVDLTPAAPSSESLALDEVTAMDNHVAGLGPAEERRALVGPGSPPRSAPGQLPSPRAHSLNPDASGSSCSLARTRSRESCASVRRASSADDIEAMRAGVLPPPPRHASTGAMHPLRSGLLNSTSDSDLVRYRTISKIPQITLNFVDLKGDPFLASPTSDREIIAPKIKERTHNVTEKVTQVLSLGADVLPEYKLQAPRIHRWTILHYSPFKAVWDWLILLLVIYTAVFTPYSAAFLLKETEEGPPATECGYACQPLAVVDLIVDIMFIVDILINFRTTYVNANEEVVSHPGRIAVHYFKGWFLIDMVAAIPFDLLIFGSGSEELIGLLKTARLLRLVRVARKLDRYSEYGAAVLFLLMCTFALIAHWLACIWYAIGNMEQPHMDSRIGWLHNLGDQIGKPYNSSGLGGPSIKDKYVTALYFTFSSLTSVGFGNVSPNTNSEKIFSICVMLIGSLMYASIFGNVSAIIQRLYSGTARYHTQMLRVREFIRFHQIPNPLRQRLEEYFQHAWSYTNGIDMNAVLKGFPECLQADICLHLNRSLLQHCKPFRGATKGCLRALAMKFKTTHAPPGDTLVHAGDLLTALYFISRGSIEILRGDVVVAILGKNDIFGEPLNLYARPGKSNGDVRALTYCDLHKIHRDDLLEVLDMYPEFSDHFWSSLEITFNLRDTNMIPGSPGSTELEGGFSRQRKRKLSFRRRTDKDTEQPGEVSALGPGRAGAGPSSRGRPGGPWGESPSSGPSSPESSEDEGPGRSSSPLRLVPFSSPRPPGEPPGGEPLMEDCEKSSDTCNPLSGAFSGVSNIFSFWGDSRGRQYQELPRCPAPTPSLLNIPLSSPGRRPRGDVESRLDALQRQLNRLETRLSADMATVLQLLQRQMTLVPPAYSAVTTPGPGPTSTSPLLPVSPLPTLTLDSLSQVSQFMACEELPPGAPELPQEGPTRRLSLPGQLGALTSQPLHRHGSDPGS

Structure (SMILES) | IC50 (SARS-CoV-2 [1]) [nM] | Activity (Vero C1008 [2]) | Ratio IC50 (SARS-CoV-2 [3]) | inhibition (SARS-CoV-2 [1]) | viability at 48 h, 5 µM [4] [%] | Activity (SARS-CoV-2 [6]) [%] | IC50 [7] [nM] | logD at 3 h [8] | half-life at 2 µM [9] [min] | half-life at 2 µM [10] [min] | remaining at 1 h, 2 µM [11] [%] | remaining at 1 h, 2 µM [12] [%] | half-life at 100 µM [13] [min] | half-life at 100 µM [14] [min] | remaining at 1 h, 100 µM [15] [%] | remaining at 1 h, 100 µM [16] [%] | microsomal CLint at 100 µM [17] [µL/min/mg] | microsomal CLint at 100 µM [18] [µL/min/mg] | further results
Cc1ccc(Cn2c(CSc3c(C)cc(C)cc3C)c(C(=O)NC3CCN(Cc4ccccc4)CC3)c3cc(O)c(Br)cc32)cc1 | 1500 | Non-toxic | ~13 |  |  |  |  |  |  |  |  |  |  |  |  |  |  |  | 
CCOC(=O)c1c(CSc2ccc(F)cc2C)n(C)c2cc(Br)c(O)cc12 |  |  |  | inactive | 70 | 75 |  |  |  |  |  |  |  |  |  |  |  |  | Activity (SARS-CoV-2 [5]; Severe acute respiratory syndrome coronavirus 2, time 48.25 hrs): Not active; No Significant Effect Observed
CN(C)CCCCNC(=O)c1c(CSc2ccc(F)cc2)n(C)c2cc(Br)c(O)cc12 | 1800 | Non-toxic |  |  |  |  | 9850 | 1.91 | < 120 | 60 | 70.6 | 41.6 | 31.2 | 26.9 | 28 | 21 | 22.2 | 25.8 | 
CCOC(=O)c1c(CSc2ccccc2)n(C)c2cc(Br)c(O)c(CN(C)C)c12 [UMIFENOVIR] | 9000 | Non-toxic |  |  |  | <90 | 540 |  |  |  |  |  |  |  |  |  |  |  | IC50 [19]: 540 nM
Cc1ccc(Cn2c(CSc3c(C)cc(C)cc3C)c(C(=O)NC(C)(C)C)c3cc(O)c(Br)cc32)cc1 | 560 | Non-toxic | ~13 |  |  |  | > 30000 | 3.54 | > 120 | > 120 | 116 | 96.9 | 9.7 | 5.73 | 1.1 | 0.73 | 242 | 143 | 
CCOC(=O)c1c(CSc2ccc(C)cc2C)n(C)c2cc(Br)c(O)cc12 |  |  |  | inactive | 85 |  |  |  |  |  |  |  |  |  |  |  |  |  | Activity (Vero C1008 [20]): Non-toxic; Activity (SARS-CoV-2 [5]; time 48.25 hrs): >95%; Activity (SARS-CoV-2 [21]): >99.9%

From ChEMBL document CHEMBL6134895, “Strategic Design and Optimization of Umifenovir Analogues: Balancing Antiviral Efficacy and hERG Toxicity against SARS-CoV-2” (J Med Chem, 2025)
